Data: patent publication US20230138395A1, “PHARMACEUTICAL COMPOSITIONS OF A THERAPEUTIC POLYENE MACROLIDE AND METHODS OF THEIR USE” (priority 2020, published 2023)
In brackets after ≈: the same amount, converted by molar mass. Several values for one entry are separate records, joined by “and”; a condition that tells them apart may be missing. Equal entries are not always repeated.

Legend:
C. krusei strains [1] = test: MFC determination; format: cell-based
Candida albicans [2] = test: MFC determination; format: cell-based
[3] = test system: individual Aspergillus spp. (Table 15, species not named); test: MFC determination, Table 15; format: cell-based; conditions: Aspergillus sp. of Table 15
C. albicans SC5314 [4] = test: In vitro activity (MFC) against the infecting strain, Example 18; format: cell-based, Candida albicans; conditions: Candida albicans, read-out: MFC
[5] = test system: Fusarium strains (Table 18); test: MFC determination, Table 18; format: cell-based, Fusarium spp.
C. parapsilosis = test: MFC determination; format: cell-based
Penicillium strains [6] = test: MIC testing (CLSI M38-A2); format: cell-based, Penicillium spp.; conditions: Penicillium
[7] = test system: individual Aspergillus spp. (Table 13, species not given); test: MFC determination, Table 13; format: cell-based; conditions: Aspergillus sp. of Table 13
[8] = test system: all Aspergillus strains tested; test: MIC testing (CLSI M38-A2), summary; format: cell-based; conditions: caspofungin read as MEC
C. krusei strains [9] = test: MIC testing (CLSI M27-A3); format: cell-based
C. albicans SC5314 [10] = test: In vitro activity (MIC) against the infecting strain, Example 18; format: cell-based, Candida albicans; conditions: Candida albicans, minimum effective concentration, read-out: MIC read as MEC
Cr. neoformans strains = test: MIC testing (CLSI M27-A3, YNB, 72 h); format: cell-based, Cryptococcus neoformans
Penicillium strains [11] = test: MFC determination; format: cell-based, Penicillium spp.
C. glabrata strains = test: MIC testing (CLSI M27-A3); format: cell-based; parameters: MIC: unit not given beside the values
Fusarium strains [12] = test: MIC testing (CLSI M38-A2), Table 17; format: cell-based, Fusarium spp.; conditions: Fusarium strains (Table 17)
Candida albicans [13] = test: MIC testing (CLSI M27-A3); format: cell-based; parameters: MIC: unit not given beside the values; conditions: for MIC Range: in µg/mL
[14] = test system: individual Aspergillus spp. (Table 15, species not named); test: MIC testing (CLSI M38-A2), Table 15; format: cell-based; conditions: Aspergillus sp. of Table 15, caspofungin read as MEC
Candida albicans SC5314 = test: Disseminated candidiasis in immunocompromised murine model (BALB/c mice): tissue fungal burden; format: in vivo; conditions: Experiment I; 0.35 mg/kg i.v., 7 days
Fusarium strains [15] = test: MFC determination, Table 17; format: cell-based, Fusarium spp.; conditions: Fusarium strains (Table 17)
[16] = test system: individual Aspergillus spp. (Table 14, species not named); test: MFC determination, Table 14; format: cell-based; conditions: Aspergillus sp. of Table 14
[17] = test system: all Aspergillus strains tested; test: MFC determination, summary; format: cell-based
[18] = test system: individual Aspergillus spp. (Table 12, species not named); test: MFC determination, Table 12; format: cell-based; conditions: Aspergillus sp. of Table 12
C. tropicalis = test: MFC determination; format: cell-based; conditions: C. tropicalis
[19] = test system: individual Aspergillus spp. (Table 12, species not named); test: MIC testing (CLSI M38-A2), Table 12; format: cell-based; conditions: Aspergillus sp. of Table 12, caspofungin read as MEC
all Candida strains = test: MIC testing (CLSI M27-A3), summary; format: cell-based
[20] = test system: Aspergillus fumigatus AF91; test: Disseminated Aspergillosis in immunocompromised murine model (CD-1 mice): tissue fungal burden; conditions: Experiment I; 1.0 mg/kg i.v., 7 days
[21] = test system: individual Aspergillus spp. (Table 13, species not given); test: MIC testing (CLSI M38-A2), Table 13; format: cell-based; conditions: Aspergillus sp. of Table 13, caspofungin read as MEC
[22] = individual C. krusei strain with elevated MICs to non-polyene comparators (Table 22)
[23] = individual C. albicans strain with elevated MICs to non-polyene comparators (Table 22), listed as Cas

For `CC[C@H](C)C[C@H](C)CCCCCCCCC(=O)N[C@H]1C[C@@H](O)[C@@H](NCCN)NC(=O)[C@@H]2[C@@H](O)CCN2C(=O)[C@H]([C@H](O)CCN)NC(=O)[C@H]([C@H](O)[C@@H](O)c2ccc(O)cc2)NC(=O)[C@@H]2C[C@@H](O)CN2C(=O)[C@H]([C@@H](C)O)NC1=O` [Caspofungin, caspofungin], the MFC50 (C. krusei strains [1]; C. krusei, kills 50% of strains) was 2 µg/mL (≈ 1.83 µM), the MFC90 (C. krusei strains [1]; C. krusei, kills 90% of strains) was 8 µg/mL (≈ 7.32 µM) and the MFC (C. krusei strains [1]; [22]) was greater than 32 µg/mL. For the same molecule, the “MFC Range” value (Candida albicans [2]; Fluconazole-susceptible C. albicans n = 13, in µg/mL) was 0.5-32, the MFC50 (Candida albicans [2]; Fluconazole-susceptible C. albicans n = 13, kills 50% of strains) was 0.25 µg/mL (≈ 0.229 µM) and the MFC90 (Candida albicans [2]; Fluconazole-susceptible C. albicans n = 13, kills 90% of strains) was 2 µg/mL (≈ 1.83 µM). For the same molecule, the MFC (Candida albicans [2]; [23]) was >32 (2×) and 32, the MFC50 ([3]; kills 50% of strains) was greater than 32 µg/mL and the MFC90 ([3]; kills 90% of strains) was greater than 32 µg/mL. It also gave an MFC (C. albicans SC5314 [4]) of 32 µg/mL (≈ 29.3 µM), an MFC Range [5] greater than 32 µg/mL and an MFC50 ([5]; kills 50% of strains) greater than 32 µg/mL. The MFC90 ([5]; kills 90% of strains) was greater than 32 µg/mL, the MFC50 (C. parapsilosis; C. parapsilosis, kills 50% of strains) was greater than 32 µg/mL and the MFC90 (C. parapsilosis; C. parapsilosis, kills 90% of strains) was greater than 32 µg/mL. It also gave an MFC (C. parapsilosis; individual C. parapsilosis strain with elevated MICs to non-polyene comparators (Table 22), in µg/mL) greater than 32, an MIC50 (Penicillium strains [6]; inhibits 50% of strains) of 4 µg/mL (≈ 3.66 µM) and an MIC90 (Penicillium strains [6]; inhibits 90% of strains) of 32 µg/mL (≈ 29.3 µM). The MFC50 ([7]; kills 50% of strains) was greater than 32 µg/mL, the MFC90 ([7]; kills 90% of strains) was greater than 32 µg/mL and the “MIC Range” value ([8]; in µg/mL) was 0.125-8. The MIC50 ([8]; inhibits 50% of strains) was 0.25 µg/mL (≈ 0.229 µM), the MIC90 ([8]; inhibits 90% of strains) was 0.5 µg/mL (≈ 0.457 µM) and the “MIC Range” value (C. krusei strains [9]; C. krusei strains, in µg/mL) was 0.5-16. For the same molecule, the MIC50 (C. krusei strains [9]; C. krusei, inhibits 50% of strains) was 1 µg/mL (≈ 0.915 µM), the MIC90 (C. krusei strains [9]; C. krusei, inhibits 90% of strains) was 4 µg/mL (≈ 3.66 µM) and the MIC (C. krusei strains [9]; [22]) was 16 µg/mL (≈ 14.6 µM). For the same molecule, the MIC (C. albicans SC5314 [10]) was 0.25 µg/mL (≈ 0.229 µM), the “MIC Range” value (Cr. neoformans strains; Cr. neoformans strains, 72 h, in µg/mL) was 1-16 and the MIC50 (Cr. neoformans strains; Cr. neoformans, inhibits 50% of strains) was 16 µg/mL (≈ 14.6 µM). The MIC90 (Cr. neoformans strains; Cr. neoformans, inhibits 90% of strains) was 16 µg/mL (≈ 14.6 µM), the MFC50 (Penicillium strains [11]; kills 50% of strains) was greater than 32 µg/mL and the MFC90 (Penicillium strains [11]; kills 90% of strains) was greater than 32 µg/mL. For the same molecule, the “MIC Range” value (C. glabrata strains; C. glabrata strains, in µg/mL) was 0.25-8, the MIC50 (C. glabrata strains; C. glabrata, inhibits 50% of strains) was 0.5 µg/mL (≈ 0.457 µM) and the MIC90 (C. glabrata strains; C. glabrata, inhibits 90% of strains) was 2 µg/mL (≈ 1.83 µM). For the same molecule, the MIC (C. glabrata strains; individual C. glabrata strain with elevated MICs to non-polyene comparators (Table 22), listed as Cas) was 2 (2×) and 1 and 4 and 8, the “MIC Range” value (Fusarium strains [12]; in µg/mL) was 1-64 and the MIC50 (Fusarium strains [12]; inhibits 50% of strains) was 32 µg/mL (≈ 29.3 µM). The MIC90 (Fusarium strains [12]; inhibits 90% of strains) was 32 µg/mL (≈ 29.3 µM), the “MIC Range” value (Candida albicans [13]; Fluconazole-resistant C. albicans n = 7) was 0.125-2 and the “MIC Range” value (Candida albicans [13]; Fluconazole-susceptible C. albicans n = 13) was 0.125-0.25. For the same molecule, the MIC50 (Candida albicans [13]; Fluconazole-susceptible C. albicans n = 13, inhibits 50% of strains) was 0.25 µg/mL (≈ 0.229 µM), the MIC90 (Candida albicans [13]; Fluconazole-susceptible C. albicans n = 13, inhibits 90% of strains) was 0.25 µg/mL (≈ 0.229 µM) and the MIC (Candida albicans [13]; [23]) was 1 (2×) and 2. For the same molecule, the “MIC Range” value ([14]; in µg/mL) was 0.25-1, the MIC50 ([14]; inhibits 50% of strains) was 0.25 µg/mL (≈ 0.229 µM) and the MIC90 ([14]; inhibits 90% of strains) was 0.5 µg/mL (≈ 0.457 µM). The “Brain tissue fungal burden, Mean log CFUs ± the standard deviation” value (Candida albicans SC5314) was 1.22 ± 1.87 log CFUs, the “Kidney tissue fungal burden, Mean log CFUs ± the standard deviation” value (Candida albicans SC5314) was 3.22 ± 1.26 log CFUs and the “MFC Range” value (Fusarium strains [15]; in µg/mL) was greater than 32. For the same molecule, the MFC50 (Fusarium strains [15]; kills 50% of strains) was greater than 32 µg/mL, the MFC90 (Fusarium strains [15]; kills 90% of strains) was greater than 32 µg/mL and the MFC50 ([16]; kills 50% of strains) was greater than 32 µg/mL. For the same molecule, the MFC90 ([16]; kills 90% of strains) was greater than 32 µg/mL, the MFC50 ([17]; kills 50% of strains) was greater than 32 µg/mL and the MFC90 ([17]; kills 90% of strains) was greater than 32 µg/mL. The MFC50 ([18]; kills 50% of strains) was greater than 32 µg/mL, the MFC90 ([18]; kills 90% of strains) was greater than 32 µg/mL and the MFC50 (C. tropicalis; kills 50% of strains) was 32 µg/mL (≈ 29.3 µM). For the same molecule, the MFC90 (C. tropicalis; kills 90% of strains) was greater than 32 µg/mL, the “MIC Range” value ([19]; in µg/mL) was 0.125-8 and the MIC50 ([19]; inhibits 50% of strains) was 0.25 µg/mL (≈ 0.229 µM). For the same molecule, the MIC90 ([19]; inhibits 90% of strains) was 0.5 µg/mL (≈ 0.457 µM), the “MIC Range” value (all Candida strains; in µg/mL) was 0.06-16 and the MIC50 (all Candida strains; inhibits 50% of strains) was 0.5 µg/mL (≈ 0.457 µM). The MIC90 (all Candida strains; inhibits 90% of strains) was 2 µg/mL (≈ 1.83 µM), the “Kidney tissue fungal burden, Mean log CFUs ± the standard deviation” value [20] was 3.11 ± 0.62 log CFUs and the “Lung tissue fungal burden, Mean log CFUs ± the standard deviation” value [20] was 3.41 ± 0.64 log CFUs. The “MIC Range” value ([21]; in µg/mL) was 0.25-1, the MIC50 ([21]; inhibits 50% of strains) was 0.25 µg/mL (≈ 0.229 µM) and the MIC90 ([21]; inhibits 90% of strains) was 0.5 µg/mL (≈ 0.457 µM).
